{"source": "paper PMC9882058", "about": "(bioRxiv, 2023)", "biological_target": "TcdA (Clostridioides difficile, UniProt P16154)", "sequence (P16154 whole entry, looked up)": "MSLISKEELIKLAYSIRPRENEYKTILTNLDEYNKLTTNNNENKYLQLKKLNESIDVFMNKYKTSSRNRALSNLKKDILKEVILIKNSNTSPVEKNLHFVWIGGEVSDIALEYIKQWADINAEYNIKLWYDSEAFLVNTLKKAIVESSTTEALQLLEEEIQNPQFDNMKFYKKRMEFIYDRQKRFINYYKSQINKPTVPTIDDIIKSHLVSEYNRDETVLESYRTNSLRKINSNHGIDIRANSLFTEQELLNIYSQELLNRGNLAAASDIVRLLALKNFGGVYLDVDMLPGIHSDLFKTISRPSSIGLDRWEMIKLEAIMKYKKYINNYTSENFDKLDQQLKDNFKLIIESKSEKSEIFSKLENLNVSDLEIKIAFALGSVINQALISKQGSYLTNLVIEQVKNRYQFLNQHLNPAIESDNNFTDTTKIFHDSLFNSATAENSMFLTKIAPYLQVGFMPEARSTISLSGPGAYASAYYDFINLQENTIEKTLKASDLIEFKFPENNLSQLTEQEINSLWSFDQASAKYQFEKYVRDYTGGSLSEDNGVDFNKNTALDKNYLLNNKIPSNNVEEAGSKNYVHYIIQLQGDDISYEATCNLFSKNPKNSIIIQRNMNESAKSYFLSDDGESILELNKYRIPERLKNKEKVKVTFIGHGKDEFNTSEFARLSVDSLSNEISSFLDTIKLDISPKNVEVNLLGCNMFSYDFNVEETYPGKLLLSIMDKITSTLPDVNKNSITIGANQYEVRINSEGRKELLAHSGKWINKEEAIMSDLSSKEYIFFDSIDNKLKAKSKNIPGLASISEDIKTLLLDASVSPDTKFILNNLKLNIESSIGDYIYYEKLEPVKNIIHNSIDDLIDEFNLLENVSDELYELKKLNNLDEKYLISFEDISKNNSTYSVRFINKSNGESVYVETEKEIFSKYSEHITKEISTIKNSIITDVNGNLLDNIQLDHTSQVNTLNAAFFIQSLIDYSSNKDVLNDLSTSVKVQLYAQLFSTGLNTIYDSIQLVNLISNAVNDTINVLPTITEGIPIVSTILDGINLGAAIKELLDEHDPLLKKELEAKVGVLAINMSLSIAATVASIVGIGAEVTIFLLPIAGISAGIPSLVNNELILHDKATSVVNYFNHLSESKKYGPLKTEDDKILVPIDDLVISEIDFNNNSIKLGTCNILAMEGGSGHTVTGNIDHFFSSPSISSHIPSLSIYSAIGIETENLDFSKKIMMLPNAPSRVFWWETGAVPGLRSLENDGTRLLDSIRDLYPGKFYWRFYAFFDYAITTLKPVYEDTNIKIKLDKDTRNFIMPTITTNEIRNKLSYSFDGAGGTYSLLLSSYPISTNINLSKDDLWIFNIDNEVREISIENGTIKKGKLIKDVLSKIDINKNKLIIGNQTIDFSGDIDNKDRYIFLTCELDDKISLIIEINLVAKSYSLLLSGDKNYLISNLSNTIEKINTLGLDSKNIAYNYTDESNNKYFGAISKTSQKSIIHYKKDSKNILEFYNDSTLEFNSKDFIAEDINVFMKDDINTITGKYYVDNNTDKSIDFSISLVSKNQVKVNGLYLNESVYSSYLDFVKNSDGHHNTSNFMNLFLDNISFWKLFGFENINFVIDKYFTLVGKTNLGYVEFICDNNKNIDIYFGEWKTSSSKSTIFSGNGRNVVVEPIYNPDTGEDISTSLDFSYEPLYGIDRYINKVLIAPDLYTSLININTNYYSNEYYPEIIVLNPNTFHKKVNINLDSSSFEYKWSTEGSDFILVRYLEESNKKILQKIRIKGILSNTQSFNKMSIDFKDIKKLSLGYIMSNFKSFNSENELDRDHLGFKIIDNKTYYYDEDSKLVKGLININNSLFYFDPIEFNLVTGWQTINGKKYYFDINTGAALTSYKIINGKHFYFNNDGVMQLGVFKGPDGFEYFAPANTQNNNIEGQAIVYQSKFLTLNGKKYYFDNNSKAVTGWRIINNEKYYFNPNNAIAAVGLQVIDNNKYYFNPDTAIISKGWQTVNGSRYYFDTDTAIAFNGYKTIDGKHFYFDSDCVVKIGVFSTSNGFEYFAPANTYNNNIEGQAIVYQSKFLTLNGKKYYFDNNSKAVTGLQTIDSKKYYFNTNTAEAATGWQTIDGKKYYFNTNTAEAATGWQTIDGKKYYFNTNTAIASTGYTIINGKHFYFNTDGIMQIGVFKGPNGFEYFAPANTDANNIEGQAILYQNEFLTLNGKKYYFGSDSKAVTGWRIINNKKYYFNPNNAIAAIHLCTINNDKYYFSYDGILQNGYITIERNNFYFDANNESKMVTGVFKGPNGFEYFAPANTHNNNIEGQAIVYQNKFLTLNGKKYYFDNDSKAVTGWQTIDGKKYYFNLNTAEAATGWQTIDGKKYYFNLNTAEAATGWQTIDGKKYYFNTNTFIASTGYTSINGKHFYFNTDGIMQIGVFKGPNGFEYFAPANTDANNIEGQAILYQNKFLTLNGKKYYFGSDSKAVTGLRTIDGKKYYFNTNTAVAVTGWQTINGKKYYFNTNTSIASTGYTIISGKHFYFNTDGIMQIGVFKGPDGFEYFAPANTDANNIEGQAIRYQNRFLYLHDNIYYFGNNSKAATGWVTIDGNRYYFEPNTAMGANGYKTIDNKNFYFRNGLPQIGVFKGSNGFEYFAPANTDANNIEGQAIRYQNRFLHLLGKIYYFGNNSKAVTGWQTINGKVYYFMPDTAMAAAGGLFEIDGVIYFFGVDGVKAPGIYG", "conditions": "peptides on beads; 0.2 µM TcdA-AF594; qualitative", "data": [{"sequence": "EFWMGRHH [SA5]", "values": [{"measurement": "TcdA binding performance in bead-based screen", "value": "performed significantly better than those from Case 3 (SA6, SA7)"}]}, {"sequence": "MFWEHRHR [SA4]", "values": [{"measurement": "TcdA binding performance in bead-based screen", "value": "performed significantly better than those from Case 3 (SA6, SA7)"}]}, {"sequence": "QDWMRRHW [SA2]", "values": [{"measurement": "TcdA binding performance in bead-based screen", "value": "performed significantly better than those from Case 3 (SA6, SA7)"}]}]}
